From ChEMBL document CHEMBL1201862, “PubChem BioAssay data set” (2004)
Active and inactive are the calls of the source.

Tests used:
[1] = tested on: HEK293; test: cells; assay type: functional, cell-based; conditions: Homo sapiens
[2] = tested on: HEK293; test: NOD2 signaling inhibitors in MDP-stimulated cells, cell-based, uHTS, luminescence (AID 2001); assay type: functional; conditions: Homo sapiens
[3] = tested on: HEK293; test: cells; assay type: functional, cell-based; conditions: Homo sapiens; remark: listed apart in the source
[4] = molecular target: Nucleotide-binding oligomerization domain-containing protein 2 (Homo sapiens, UniProt Q9HC29); test: NOD2 signaling inhibitors, cell-based, luminescence, uHTS, HEK293 (AID 1566); assay type: functional
[5] = tested on: HEK293; test: cells; assay type: functional, cell-based; conditions: Homo sapiens; remark: listed apart in the source
[6] = tested on: HEK293; test: NOD1 signaling inhibitors, primary screen, cell-based, luminescence, uHTS (AID 1578); assay type: functional; conditions: Homo sapiens
[7] = molecular target: T1, Heat shock factor protein 1 (Mus musculus, UniProt P38532); test: HSF1 potentiators in luciferase reporter cells, confirmation, cell-based, NIH3T3, luminescence, dose retest (AID 435004); assay type: functional;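 also: stress induced by proteasome inhibitor MG132 added 30 min after compound; luciferase reporter driven by HSF1 response element in NIH3T3 cells; actives raise luminescence as potentiators of the MG132 stress response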
T1 sequence (P38532 whole entry): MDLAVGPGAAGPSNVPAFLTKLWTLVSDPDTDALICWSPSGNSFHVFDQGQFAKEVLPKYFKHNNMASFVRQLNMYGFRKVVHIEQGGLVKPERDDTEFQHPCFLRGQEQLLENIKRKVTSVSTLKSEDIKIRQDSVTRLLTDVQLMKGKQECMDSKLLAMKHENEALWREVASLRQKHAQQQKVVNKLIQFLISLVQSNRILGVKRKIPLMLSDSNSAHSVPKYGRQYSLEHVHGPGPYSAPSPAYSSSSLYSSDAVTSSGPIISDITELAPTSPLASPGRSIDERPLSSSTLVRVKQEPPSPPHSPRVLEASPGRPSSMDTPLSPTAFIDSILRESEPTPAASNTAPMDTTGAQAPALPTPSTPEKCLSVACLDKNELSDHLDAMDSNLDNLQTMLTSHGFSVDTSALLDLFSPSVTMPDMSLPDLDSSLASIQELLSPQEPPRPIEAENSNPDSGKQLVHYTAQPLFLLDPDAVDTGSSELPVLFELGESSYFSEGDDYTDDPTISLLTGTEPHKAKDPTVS

[8] = molecular target: DNA damage-inducible transcript 3 protein (Mus musculus, UniProt P35639); assay type: functional, Cricetulus griseus
[9] = molecular target: T2, Voltage-gated N-type calcium channel alpha-1B subunit/Amyloid beta A4 precursor protein-binding family A member 1 (Homo sapiens, UniProt Q00975+Q02410); assay type: protein assay
[10] = molecular target: T2, Voltage-gated N-type calcium channel alpha-1B subunit/Amyloid beta A4 precursor protein-binding family A member 1; assay type: protein assay; remark: listed apart in the source
[11] = molecular target: T3, Type-1 angiotensin II receptor (Homo sapiens, UniProt P30556); test: AT1 receptor agonists, dose response, selectivity assay for APJ receptor agonist project, cell-based, uHTS hits (AID 488865); assay type: functional;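 also: beta-arrestin recruitment to AT1 measured by enzyme fragment complementation luminescence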
T3 sequence (P30556 whole entry): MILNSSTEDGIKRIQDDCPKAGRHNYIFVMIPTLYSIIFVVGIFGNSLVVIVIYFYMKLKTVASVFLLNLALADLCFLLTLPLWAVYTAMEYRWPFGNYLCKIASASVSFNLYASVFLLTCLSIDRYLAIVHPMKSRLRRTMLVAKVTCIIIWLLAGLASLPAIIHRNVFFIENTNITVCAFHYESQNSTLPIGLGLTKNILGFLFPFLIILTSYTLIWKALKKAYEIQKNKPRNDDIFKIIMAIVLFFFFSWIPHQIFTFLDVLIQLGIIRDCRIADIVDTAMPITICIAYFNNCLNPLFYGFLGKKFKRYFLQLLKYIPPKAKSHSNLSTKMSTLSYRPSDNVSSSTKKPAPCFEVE

[12] = molecular target: Alkaline phosphatase, placental type (Homo sapiens, UniProt P05187); test: PLAP enzyme inhibitors, confirmation, biochemical, luminescence (AID 1512); assay type: functional
[13] = molecular target: T4, Alkaline phosphatase, tissue-nonspecific isozyme (Homo sapiens, UniProt P05186); test: human TNAP enzyme inhibitors, SAR follow-up, biochemical, luminescent, dose response (AID 1056)
T4 sequence (P05186 whole entry): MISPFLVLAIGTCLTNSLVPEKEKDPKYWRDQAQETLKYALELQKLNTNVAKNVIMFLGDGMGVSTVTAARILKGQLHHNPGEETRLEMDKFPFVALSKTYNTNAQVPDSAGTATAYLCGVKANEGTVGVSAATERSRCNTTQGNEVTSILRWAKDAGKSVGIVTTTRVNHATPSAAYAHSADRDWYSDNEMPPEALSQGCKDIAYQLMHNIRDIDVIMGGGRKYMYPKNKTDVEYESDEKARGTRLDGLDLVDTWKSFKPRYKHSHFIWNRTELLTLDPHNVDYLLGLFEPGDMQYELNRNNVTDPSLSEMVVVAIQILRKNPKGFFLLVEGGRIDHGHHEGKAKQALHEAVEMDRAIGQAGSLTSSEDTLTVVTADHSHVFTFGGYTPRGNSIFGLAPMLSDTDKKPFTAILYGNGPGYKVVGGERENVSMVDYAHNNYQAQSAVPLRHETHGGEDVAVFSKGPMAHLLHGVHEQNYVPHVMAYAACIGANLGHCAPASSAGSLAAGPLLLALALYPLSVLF

[14] = molecular target: Glyceraldehyde-3-phosphate dehydrogenase (Homo sapiens, UniProt P04406)
[15] = molecular target: DNA dC->dU-editing enzyme APOBEC-3G (Homo sapiens, UniProt Q9HC16); test: Dose Response confirmation of small molecule APOBEC3G DNA Deaminase Inhibitors via a fluorescence-based single-stranded DNA deaminase assay. [Related pubchem assays (depositor defined):AID493012, AID493028]; assay type: functional
[16] = molecular target: Glucose-6-phosphate 1-dehydrogenase (Homo sapiens, UniProt P11413); test: human G6PD enzyme inhibitors, dose response, selectivity assay for P. falciparum G6PD inhibitor project, biochemical, fluorescence (AID 504792); assay type: functional
[17] = molecular target: DNA dC->dU-editing enzyme APOBEC-3A (Homo sapiens, UniProt P31941); test: APOBEC3A DNA deaminase inhibitors, dose response, biochemical (AID 504722); assay type: functional
[18] = molecular target: T5, Coagulation factor XII (Homo sapiens, UniProt P00748); assay type: functional;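 also: activated factor XIIa alpha cleaving a fluorogenic AMC peptide substrate; inhibitor potency from loss of enzyme activity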
T5 sequence (P00748 whole entry): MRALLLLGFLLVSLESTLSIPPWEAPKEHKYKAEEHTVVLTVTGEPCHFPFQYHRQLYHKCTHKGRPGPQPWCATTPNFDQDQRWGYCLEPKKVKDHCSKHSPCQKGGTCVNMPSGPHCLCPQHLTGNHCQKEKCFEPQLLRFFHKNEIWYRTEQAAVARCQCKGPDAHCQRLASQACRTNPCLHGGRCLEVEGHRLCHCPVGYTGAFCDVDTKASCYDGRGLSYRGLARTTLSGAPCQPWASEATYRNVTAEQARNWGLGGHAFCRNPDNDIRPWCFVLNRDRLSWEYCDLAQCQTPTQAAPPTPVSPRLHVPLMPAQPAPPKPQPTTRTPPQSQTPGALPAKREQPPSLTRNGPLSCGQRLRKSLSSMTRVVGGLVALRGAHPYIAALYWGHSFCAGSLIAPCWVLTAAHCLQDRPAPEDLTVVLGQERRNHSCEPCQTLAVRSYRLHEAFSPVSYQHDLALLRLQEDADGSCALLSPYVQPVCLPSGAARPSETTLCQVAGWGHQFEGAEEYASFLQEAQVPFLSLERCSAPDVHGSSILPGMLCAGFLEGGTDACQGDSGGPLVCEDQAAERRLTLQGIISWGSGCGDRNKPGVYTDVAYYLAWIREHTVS

[19] = Luminescence Cell-Based Dose Retest to Confirm Inhibitors of Cancer Stem Cells. [Related pubchem assays (depositor defined):AID2717, AID2721]; assay type: functional; conditions: Homo sapiens
[20] = cells; assay type: functional
[21] = THP-1 cell cytotoxicity, dose response, cytotoxicity control for non-replicating M. tuberculosis project (AID 489025); assay type: functional
[22] = HepG2 cell cytotoxicity, dose response, cytotoxicity control for non-replicating M. tuberculosis project (AID 489018); assay type: functional; conditions: Mycobacterium tuberculosis
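For AC50 in this document: cells exposed to compound for roughly 70 hours or longer before luminescence read.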

T2 sequence (Q00975 whole entry): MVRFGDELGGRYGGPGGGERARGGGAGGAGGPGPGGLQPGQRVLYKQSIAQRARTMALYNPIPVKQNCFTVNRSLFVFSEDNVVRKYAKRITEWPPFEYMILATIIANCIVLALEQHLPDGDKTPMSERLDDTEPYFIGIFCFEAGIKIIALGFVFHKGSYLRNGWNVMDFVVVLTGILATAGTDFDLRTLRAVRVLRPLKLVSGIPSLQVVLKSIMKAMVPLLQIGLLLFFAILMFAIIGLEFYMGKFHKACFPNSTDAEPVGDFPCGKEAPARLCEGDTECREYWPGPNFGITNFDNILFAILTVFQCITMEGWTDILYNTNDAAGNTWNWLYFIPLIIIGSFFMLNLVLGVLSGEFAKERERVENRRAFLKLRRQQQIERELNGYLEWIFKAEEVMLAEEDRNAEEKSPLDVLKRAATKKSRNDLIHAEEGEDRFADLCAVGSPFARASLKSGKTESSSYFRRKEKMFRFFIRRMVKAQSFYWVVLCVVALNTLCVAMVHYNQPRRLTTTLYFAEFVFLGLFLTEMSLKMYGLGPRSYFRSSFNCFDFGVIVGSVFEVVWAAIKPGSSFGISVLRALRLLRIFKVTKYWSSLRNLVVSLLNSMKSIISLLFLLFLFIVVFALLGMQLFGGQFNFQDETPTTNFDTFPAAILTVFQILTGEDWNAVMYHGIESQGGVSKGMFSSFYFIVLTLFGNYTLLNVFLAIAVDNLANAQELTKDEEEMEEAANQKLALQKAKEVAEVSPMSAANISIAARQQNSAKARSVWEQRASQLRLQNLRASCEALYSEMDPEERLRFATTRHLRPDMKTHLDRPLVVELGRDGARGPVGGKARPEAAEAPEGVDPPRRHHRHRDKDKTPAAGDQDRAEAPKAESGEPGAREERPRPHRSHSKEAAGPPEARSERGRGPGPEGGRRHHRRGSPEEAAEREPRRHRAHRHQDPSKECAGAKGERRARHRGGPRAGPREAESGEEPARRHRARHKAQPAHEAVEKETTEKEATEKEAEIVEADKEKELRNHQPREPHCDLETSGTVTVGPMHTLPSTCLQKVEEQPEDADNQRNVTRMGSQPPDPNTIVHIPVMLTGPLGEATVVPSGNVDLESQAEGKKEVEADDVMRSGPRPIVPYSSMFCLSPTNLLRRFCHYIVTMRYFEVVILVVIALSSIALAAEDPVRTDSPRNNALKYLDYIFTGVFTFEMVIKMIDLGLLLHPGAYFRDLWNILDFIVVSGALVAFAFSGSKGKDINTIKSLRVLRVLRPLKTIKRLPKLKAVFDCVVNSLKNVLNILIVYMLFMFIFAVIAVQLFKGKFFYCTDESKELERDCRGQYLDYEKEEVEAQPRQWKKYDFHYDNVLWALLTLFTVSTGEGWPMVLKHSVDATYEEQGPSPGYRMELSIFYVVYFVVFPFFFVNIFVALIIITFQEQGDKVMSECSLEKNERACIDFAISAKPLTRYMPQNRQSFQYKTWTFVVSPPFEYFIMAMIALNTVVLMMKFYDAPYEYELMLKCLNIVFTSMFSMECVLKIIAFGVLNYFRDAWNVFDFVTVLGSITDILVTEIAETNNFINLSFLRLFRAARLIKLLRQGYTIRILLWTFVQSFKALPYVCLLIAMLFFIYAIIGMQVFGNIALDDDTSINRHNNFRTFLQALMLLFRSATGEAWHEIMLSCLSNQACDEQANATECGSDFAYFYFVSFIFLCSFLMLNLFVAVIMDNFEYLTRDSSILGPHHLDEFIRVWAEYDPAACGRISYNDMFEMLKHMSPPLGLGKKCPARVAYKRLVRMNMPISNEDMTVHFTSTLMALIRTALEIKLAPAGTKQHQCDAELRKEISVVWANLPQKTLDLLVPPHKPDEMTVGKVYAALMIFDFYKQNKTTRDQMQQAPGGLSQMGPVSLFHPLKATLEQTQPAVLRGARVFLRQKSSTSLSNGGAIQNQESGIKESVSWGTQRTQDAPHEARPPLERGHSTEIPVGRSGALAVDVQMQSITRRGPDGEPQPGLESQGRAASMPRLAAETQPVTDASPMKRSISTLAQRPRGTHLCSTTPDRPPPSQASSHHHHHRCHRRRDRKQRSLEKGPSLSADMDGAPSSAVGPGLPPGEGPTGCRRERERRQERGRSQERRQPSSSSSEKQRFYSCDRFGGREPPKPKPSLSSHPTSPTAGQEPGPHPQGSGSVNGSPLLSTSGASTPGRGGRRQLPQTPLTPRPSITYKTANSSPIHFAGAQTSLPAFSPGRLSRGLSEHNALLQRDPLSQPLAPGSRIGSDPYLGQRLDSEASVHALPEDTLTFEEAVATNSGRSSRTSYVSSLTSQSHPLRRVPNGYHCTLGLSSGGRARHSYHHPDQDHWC
T2 sequence (Q02410 whole entry): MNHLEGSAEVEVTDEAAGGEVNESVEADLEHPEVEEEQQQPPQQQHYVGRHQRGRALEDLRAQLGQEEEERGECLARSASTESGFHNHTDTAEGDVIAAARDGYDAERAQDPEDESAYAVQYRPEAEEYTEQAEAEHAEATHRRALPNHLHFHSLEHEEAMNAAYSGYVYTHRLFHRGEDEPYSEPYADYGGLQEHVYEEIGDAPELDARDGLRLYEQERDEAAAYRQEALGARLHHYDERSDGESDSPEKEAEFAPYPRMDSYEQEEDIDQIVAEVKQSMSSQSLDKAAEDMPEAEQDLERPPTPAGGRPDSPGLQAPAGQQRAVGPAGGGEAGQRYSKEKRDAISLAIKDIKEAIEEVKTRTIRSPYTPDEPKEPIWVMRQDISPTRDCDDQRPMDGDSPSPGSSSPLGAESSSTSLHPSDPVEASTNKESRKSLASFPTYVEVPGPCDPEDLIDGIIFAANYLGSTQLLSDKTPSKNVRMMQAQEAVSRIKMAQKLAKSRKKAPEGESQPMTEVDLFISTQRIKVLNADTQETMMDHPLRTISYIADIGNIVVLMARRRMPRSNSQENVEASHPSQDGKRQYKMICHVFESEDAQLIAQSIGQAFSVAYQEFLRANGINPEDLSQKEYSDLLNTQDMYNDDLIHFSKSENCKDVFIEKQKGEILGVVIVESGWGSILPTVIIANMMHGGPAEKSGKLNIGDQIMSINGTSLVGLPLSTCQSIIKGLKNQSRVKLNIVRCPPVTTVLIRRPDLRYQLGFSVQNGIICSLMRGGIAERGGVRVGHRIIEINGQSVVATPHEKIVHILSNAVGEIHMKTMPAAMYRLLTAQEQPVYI
Sequence of Nucleotide-binding oligomerization domain-containing protein 2 (Q9HC29 whole entry, the tested form may be a part): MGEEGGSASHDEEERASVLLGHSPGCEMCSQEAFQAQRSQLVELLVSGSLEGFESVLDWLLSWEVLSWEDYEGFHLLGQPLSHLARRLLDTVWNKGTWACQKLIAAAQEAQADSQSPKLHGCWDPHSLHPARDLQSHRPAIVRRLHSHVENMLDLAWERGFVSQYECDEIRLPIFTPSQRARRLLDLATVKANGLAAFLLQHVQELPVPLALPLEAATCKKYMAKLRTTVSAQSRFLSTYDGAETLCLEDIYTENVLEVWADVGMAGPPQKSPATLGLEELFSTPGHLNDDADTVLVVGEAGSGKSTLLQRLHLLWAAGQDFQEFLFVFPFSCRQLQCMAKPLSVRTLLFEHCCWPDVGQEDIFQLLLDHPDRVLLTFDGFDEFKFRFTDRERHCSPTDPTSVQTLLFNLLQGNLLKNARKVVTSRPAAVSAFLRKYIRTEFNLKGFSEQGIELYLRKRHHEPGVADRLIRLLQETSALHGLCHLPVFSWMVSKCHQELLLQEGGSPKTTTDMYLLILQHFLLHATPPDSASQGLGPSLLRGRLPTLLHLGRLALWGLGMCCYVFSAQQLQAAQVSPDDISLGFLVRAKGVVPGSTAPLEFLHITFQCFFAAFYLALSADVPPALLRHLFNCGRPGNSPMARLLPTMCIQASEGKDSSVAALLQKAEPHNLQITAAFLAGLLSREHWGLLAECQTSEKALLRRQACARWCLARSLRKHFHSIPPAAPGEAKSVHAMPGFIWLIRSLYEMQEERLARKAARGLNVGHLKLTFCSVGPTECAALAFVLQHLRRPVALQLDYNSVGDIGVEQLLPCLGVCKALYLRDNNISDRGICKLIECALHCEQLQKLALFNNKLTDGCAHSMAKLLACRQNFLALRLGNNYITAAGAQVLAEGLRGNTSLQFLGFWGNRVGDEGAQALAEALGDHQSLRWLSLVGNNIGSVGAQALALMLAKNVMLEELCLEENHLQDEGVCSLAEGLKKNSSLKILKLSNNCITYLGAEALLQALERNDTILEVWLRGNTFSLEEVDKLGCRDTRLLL
Sequence of DNA damage-inducible transcript 3 protein (P35639 whole entry): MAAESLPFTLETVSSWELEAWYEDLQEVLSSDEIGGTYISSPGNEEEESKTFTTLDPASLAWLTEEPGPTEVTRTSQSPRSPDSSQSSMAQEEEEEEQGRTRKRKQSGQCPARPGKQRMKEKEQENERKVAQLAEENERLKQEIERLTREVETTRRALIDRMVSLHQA
Sequence of Alkaline phosphatase, placental type (P05187 whole entry): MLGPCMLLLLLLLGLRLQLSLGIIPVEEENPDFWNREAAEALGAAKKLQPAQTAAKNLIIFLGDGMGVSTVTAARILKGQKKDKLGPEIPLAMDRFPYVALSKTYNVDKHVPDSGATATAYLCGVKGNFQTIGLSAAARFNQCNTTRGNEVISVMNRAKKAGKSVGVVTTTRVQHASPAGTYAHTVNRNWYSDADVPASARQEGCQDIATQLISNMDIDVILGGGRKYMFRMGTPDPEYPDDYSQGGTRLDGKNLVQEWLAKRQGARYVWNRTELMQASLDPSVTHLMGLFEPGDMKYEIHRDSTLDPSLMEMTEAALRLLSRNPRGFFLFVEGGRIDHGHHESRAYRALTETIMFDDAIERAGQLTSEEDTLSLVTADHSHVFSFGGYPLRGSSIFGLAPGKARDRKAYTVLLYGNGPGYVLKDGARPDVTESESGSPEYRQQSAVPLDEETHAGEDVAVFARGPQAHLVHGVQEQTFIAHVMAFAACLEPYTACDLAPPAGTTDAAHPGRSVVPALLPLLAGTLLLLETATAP

Question: For `COc1cc(/C=C/C(=O)c2ccc(C)cc2)ccc1OCC#N`, which IC50 [1] is on record?
Answer: > 20 µM (inactive)

Question: What about the IC50 [2] of the same compound?
Answer: 5.83 µM (active)

Question: And the IC50 [3]?
Answer: > 20 µM (inactive)

Question: What about the EC50 [4] of the same compound?
Answer: > 20 µM (inactive)

Question: And the IC50 [5]?
Answer: 4.56 µM (active)

Question: And the EC50 [6]?
Answer: 4.61 µM (active)

Question: What does the source list for `C=CCn1c(CCNC(=O)c2ccc(Cl)c(Cl)c2)nnc1SCCOc1ccc(OC)cc1`?
Answer: EC50 [7]: 16.8 µM (active); Absolute IC50 (CHOP) [8]: 10 µM

Question: For `O=C1NC(=O)N(c2ccccc2)C(=O)/C1=C/c1ccc(Sc2ccccc2)o1`, which IC50 [9] is on record?
Answer: 34.4 µM (active)

Question: And the IC50 [10]?
Answer: 35.9 µM (active)

Question: For `COc1ccc2nc(O)c(C(c3nnnn3CC3CCCO3)N3CCc4ccccc4C3)cc2c1` (stereo not drawn), which EC50 [11] is on record?
Answer: > 100 µM (inactive)

Question: With `COc1ccccc1-c1nnc(SCC(=O)Nc2ccc(C)c(C)c2)[nH]1` as the compound, how does the IC50 [12] read?
Answer: > 100 µM (inactive)

Question: And the IC50 [13]?
Answer: > 100 µM (inactive)

Question: And the IC50 [14]?
Answer: > 100 µM (not active)

Question: For `Nn1c(SCC(=O)Nc2cccnc2Cl)nnc1-c1ccccc1`, which IC50 [15] is on record?
Answer: 13.3 µM (active)

Question: And the IC50 [16]?
Answer: > 80 µM (inactive)

Question: And the IC50 [17]?
Answer: > 100 µM (inactive)

Question: With `COc1ccc(C)cc1NC(=O)CSc1nnc(COc2ccc(Cl)cc2)n1Cc1ccco1` as the compound, how does the EC50 [7] read?
Answer: 259 µM (active)

Question: What about the IC50 [18] of the same compound?
Answer: > 50 µM (inactive)

Question: And the AC50 [19]?
Answer: 5.42 µM (active)

Question: What does the source list for `CC(C)C[C@H]1CN=C(Nc2ccccc2)N1CCCC1CCCCC1`?
Answer: IC50 [20]: 40.1 µM (active); CC50 [21]: 16.2 µM (active); CC50 [22]: > 20 µM (active)
